# pKi: −log10 of the molar value. Counter-ions that a name gives are not always drawn.
# Target: T1, ORL1 receptor (Homo sapiens, UniProt P41146)
# T1 construct: expressed in transfected cells; host or cells: CHO (recombinant CHO-ORL1 cells), membranes
# Test: ORL1 receptor binding assay using 3H-nociceptin/orphanin FQ with membranes of recombinant CHO-ORL1 cells
# Settings: 3H-nociceptin/orphanin FQ 0.5 nM, WGA-SPA beads, one hour at room temperature
# Procedure: The 4-amino-1-phenylbutan-2-ol compounds of the general formula I have been studied in a receptor binding assay using ^3H-nociceptin/orphanin FQ with membranes of recombinant CHO-ORL1 cells. That test system was carried out according to the method put forward by Ardati et al. (Mol. Pharmacol., 51, 1997, p. 816–824). The concentration of ^3H-nociceptin/orphanin FQ in those tests was 0.5 nM. The binding assays were carried out using in each case 20 μg of membrane protein per 200 μl batch in 50 mM Hepes, pH 7.4, 10 mM MgCl2 and 1 mM EDTA. Binding to the ORL1 receptor was determined using in each case 1 mg of WGA-SPA beads (Amersham-Pharmacia, Freiburg) by incubation of the batch for one hour at room temperature and subsequent measurement in a Trilux scintillation counter (Wallac, Finland). The affinity is given as the Ki value.
# For each of the compounds of Examples 1 to 7, the affinity for the ORL1 receptor was determined according to the mentioned molecular-pharmacological investigations.
# T1 sequence (P41146 whole entry): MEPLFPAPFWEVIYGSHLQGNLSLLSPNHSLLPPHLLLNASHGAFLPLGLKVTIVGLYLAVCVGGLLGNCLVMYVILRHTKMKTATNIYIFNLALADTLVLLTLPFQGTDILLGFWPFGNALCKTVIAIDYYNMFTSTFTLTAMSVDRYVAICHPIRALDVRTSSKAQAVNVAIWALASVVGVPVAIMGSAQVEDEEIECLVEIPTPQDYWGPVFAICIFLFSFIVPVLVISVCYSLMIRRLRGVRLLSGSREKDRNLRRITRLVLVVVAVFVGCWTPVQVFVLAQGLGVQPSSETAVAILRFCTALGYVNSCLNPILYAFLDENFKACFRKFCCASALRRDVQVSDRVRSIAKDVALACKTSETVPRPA
row,Compound,pKi
1,"CN(C)C(c1ccccc1)C1CCCCC1(O)Cc1ccccc1Cl (stereo not shown) [Example 1, 1-(2-Chlorobenzyl)-2-(dimethylaminophenylmethyl)cyclohexanol hydrochloride]",5.22
2,"CN(C)C(c1ccccc1)C1CCCCC1(O)Cc1cccc(Cl)c1 (stereo not shown) [Example 2, 1-(3-chlorobenzyl)-2-(dimethylaminophenylmethyl)cyclohexanol hydrochloride]",5.68
3,"CN(C)C(c1ccccc1)C1CCCCC1(O)Cc1ccc(Cl)cc1 (stereo not shown) [Example 3, 1-(4-chlorobenzyl)-2-(dimethylaminophenylmethyl)-1-cyclohexanol hydrochloride]",5.77
4,"CN(C)C(c1ccccc1)C1CCCCC1(O)Cc1ccc(F)c(F)c1 (stereo not shown) [Example 4, 1-(3,4-difluorobenzyl)-2-(dimethylaminophenylmethyl)cyclohexanol hydrochloride]",5.72
5,"CN(C)C(c1ccccc1)C1CCCCC1(O)Cc1cccc(C(F)(F)F)c1 (stereo not shown) [Example 5, 2-(dimethylaminophenylmethyl)-1-(3-trifluoromethylbenzyl)cyclohexanol hydrochloride]",6.05
6,"CN(C)C(c1cccs1)C1CCCCC1(O)Cc1cccc(C(F)(F)F)c1 (stereo not shown) [Example 6, 2-(dimethylaminothiophen-2-ylmethyl)-1-(3-trifluoromethylbenzyl)cyclohexanol Hydrochloride]",6.22
7,"CN(C)C(c1ccsc1)C1CCCCC1(O)Cc1cccc(C(F)(F)F)c1 (stereo not shown) [Example 7, 2-(dimethylaminothiophen-3-ylmethyl)-1-(3-trifluoromethylbenzyl)cyclohexanol hydrochloride]",6.48
